The subject of assay [1] is Human gammaherpesvirus 4. In words: Inhibition of TPA-induced Epstein-Barr virus early antigen activation assessed as EBV-EA induction in Raji cells at 320 nM after 48 hrs relative to TPA; values are per cent of control. Conditions: human gammaherpesvirus 4, Raji.
Assay [2] in a line: Scavenging activity against NO generation in human Chang liver cells assessed as inhibition of NOR1-activation at 350 nM relative to NOR1. The class given is functional.
Assay [3] has as its system Human gammaherpesvirus 4. Kind of assay: Inhibition of TPA-induced Epstein-Barr virus early antigen activation assessed as EBV-EA induction in Raji cells at 3.2 nM after 48 hrs relative to TPA; values are per cent of control. The settings on record: human gammaherpesvirus 4, Raji.
Assay [4] concerns Human gammaherpesvirus 4. Kind of assay: Inhibition of TPA-induced Epstein-Barr virus early antigen activation assessed as EBV-EA induction in Raji cells at 0.32 nM after 48 hrs relative to TPA; values are per cent of control. Conditions: human gammaherpesvirus 4, Raji.
For a further assay, the system named is Raji. Kind of assay: Cell viability of Raji cells at 320 nM. Type of assay: functional, Homo sapiens.
Assay [5] has as its system Human gammaherpesvirus 4. Kind of assay: Inhibition of TPA-induced Epstein-Barr virus early antigen activation assessed as EBV-EA induction in Raji cells at 32 nM after 48 hrs relative to TPA; values are per cent of control. The settings on record: human gammaherpesvirus 4, Raji.
Assay [6] has as its system Human gammaherpesvirus 4. In words: Inhibition of TPA-induced Epstein-Barr virus early antigen activation in Raji cells after 48 hrs. The class given is functional, organism-based. Conditions: human gammaherpesvirus 4, Raji.

As for `C=C(CC[C@@H](C)[C@H]1CC[C@@]2(C)[C@@H]3CC[C@H]4[C@@H](C)C(=O)CC[C@@]45C[C@@]35CC[C@]12C)C(C)C`, the level, % of control at 0.32 µM with Human gammaherpesvirus 4 [1] was determined as 0%. Moreover, the Activity in assay [2] was 1.5; in the assay on Raji, 70%. In the assay with Human gammaherpesvirus 4 [3], the level, % of control at 0.0032 µM turned out to be 73.6%. Moreover, the level, % of control at 0.00032 µM in the assay with Human gammaherpesvirus 4 [4] worked out at 95.1%. Besides, the level, % of control at 0.032 µM in the assay on Human gammaherpesvirus 4 [5] came to 32.7%. In the assay on Human gammaherpesvirus 4 [6], this compound returned a 50% inhibitory concentration (IC50) of 10.2 nM.
Regarding `COC(CC[C@@H](C)[C@H]1CC[C@@]2(C)[C@@H]3CC[C@H]4C(C)(C)C(=O)CC[C@@]45C[C@@]35CC[C@]12C)C(C)(C)O` (some centres not stated), the level, % of control at 0.32 µM with Human gammaherpesvirus 4 [1] came out at 0%. Further, the Activity is reported as 1.9 in assay [2] and 70% in the assay on Raji. For the same compound, the level, % of control at 0.0032 µM in the assay on Human gammaherpesvirus 4 [3] was 67.1%. For the same compound, the level, % of control at 0.00032 µM with Human gammaherpesvirus 4 [4] worked out at 94.6%. For the same compound, the level, % of control at 0.032 µM in the assay on Human gammaherpesvirus 4 [5] worked out at 21%. In the assay on Human gammaherpesvirus 4 [6], this compound came in with an IC50 of 8.8 nM.
Regarding `C/C(=C\C[C@@H](C)[C@H]1CC[C@@]2(C)[C@@H]3CC[C@H]4C(C)(C)[C@@H](O)CC[C@@]45C[C@@]35CC[C@]12C)C(C)C` [(23E)-CYCLOSADOL], the level, % of control at 0.32 µM in the assay with Human gammaherpesvirus 4 [1] turned out to be 0%. For the same compound, the Activity in assay [2] was 2; in the assay with Raji, 70%. In the assay on Human gammaherpesvirus 4 [3], the level, % of control at 0.0032 µM stood at 72.8%. The level, % of control at 0.00032 µM with Human gammaherpesvirus 4 [4] amounted to 95.2%. Also, the level, % of control at 0.032 µM in the assay with Human gammaherpesvirus 4 [5] amounted to 31.4%. The compound also registered an IC50 with Human gammaherpesvirus 4 [6] of 9.9 nM.
With `C=C(CC[C@@H](C)[C@H]1CC[C@@]2(C)[C@@H]3CC[C@H]4[C@H](C)[C@@H](OC(=O)/C=C/c5ccc(O)c(OC)c5)CC[C@@]45C[C@@]35CC[C@]12C)C(C)C` [CYCLOEUCALENOL FERULATE], in the assay with Human gammaherpesvirus 4 [1], the level, % of control at 0.32 µM turned out to be 14.2%. In addition, the Activity in assay [2] was found to be 1.5; with Raji, 70%. Besides, the level, % of control at 0.0032 µM in the assay with Human gammaherpesvirus 4 [3] was determined as 81.5%. The level, % of control at 0.00032 µM in the assay with Human gammaherpesvirus 4 [4] is 100%. In addition, the level, % of control at 0.032 µM in the assay with Human gammaherpesvirus 4 [5] is 53.2%. For the same compound, the IC50 in the assay on Human gammaherpesvirus 4 [6] was 15.5 nM.
In the case of `C=C(CC[C@@H](C)[C@H]1CC[C@@]2(C)[C@@H]3CC[C@H]4C[C@@H](OC(C)=O)CC[C@@]45C[C@@]35CC[C@]12C)C(C)C`, the level, % of control at 0.32 µM in the assay with Human gammaherpesvirus 4 [1] is 0%. For the same compound, the Activity in assay [2] was found to be 1.5; in the assay with Raji, 70%. For the same compound, the level, % of control at 0.0032 µM in the assay on Human gammaherpesvirus 4 [3] turned out to be 73.1%. The level, % of control at 0.00032 µM in the assay with Human gammaherpesvirus 4 [4] came to 96.3%. Moreover, in the assay with Human gammaherpesvirus 4 [5], the level, % of control at 0.032 µM came out at 31.4%. Further, the IC50 with Human gammaherpesvirus 4 [6] came out at 10 nM.
Turning to `C=C(C)[C@@H](C)CC[C@@H](C)[C@H]1CC[C@@]2(C)[C@@H]3CC[C@H]4[C@@H](C)C(=O)CC[C@@]45C[C@@]35CC[C@]12C`, the level, % of control at 0.32 µM in the assay on Human gammaherpesvirus 4 [1] came out at 0%. Moreover, the Activity is given as 1.8 in assay [2] and 70% in the assay with Raji. Also, in the assay with Human gammaherpesvirus 4 [3], the level, % of control at 0.0032 µM amounted to 72.7%. The level, % of control at 0.00032 µM with Human gammaherpesvirus 4 [4] is 94.6%. For the same compound, the level, % of control at 0.032 µM with Human gammaherpesvirus 4 [5] stood at 32.4%. The IC50 in the assay on Human gammaherpesvirus 4 [6] amounted to 9.9 nM.
For the compound `COc1cc(/C=C/C(=O)CC(=O)/C=C/c2ccc(O)c(OC)c2)ccc1O` [CURCUMIN], the level, % of control at 0.32 µM with Human gammaherpesvirus 4 [1] worked out at 0%. For the same compound, the level, % of control at 0.0032 µM in the assay with Human gammaherpesvirus 4 [3] is 81.7%. Also, the level, % of control at 0.00032 µM in the assay on Human gammaherpesvirus 4 [4] worked out at 100%. The compound also came in with an Activity in the assay on Raji of 60%. The level, % of control at 0.032 µM in the assay with Human gammaherpesvirus 4 [5] stood at 22.8%. Also, the IC50 in the assay with Human gammaherpesvirus 4 [6] was found to be 10.2 nM.
For the compound `C=C(CC[C@@H](C)[C@H]1CC[C@@]2(C)[C@@H]3CC[C@H]4CC(=O)CC[C@@]45C[C@@]35CC[C@]12C)C(C)C`, in the assay on Human gammaherpesvirus 4 [1], the level, % of control at 0.32 µM came to 0%. The Activity in assay [2] is 1.5; in the assay on Raji, 70%. Also, the level, % of control at 0.0032 µM in the assay with Human gammaherpesvirus 4 [3] was found to be 73.8%. Besides, the level, % of control at 0.00032 µM in the assay with Human gammaherpesvirus 4 [4] was found to be 95.6%. For the same compound, the level, % of control at 0.032 µM in the assay with Human gammaherpesvirus 4 [5] turned out to be 33.2%. Also, in the assay on Human gammaherpesvirus 4 [6], the IC50 is 10.2 nM.
`CC(C)CCC[C@@H](C)[C@H]1CC[C@@]2(C)[C@@H]3CC[C@H]4[C@H](C)[C@@H](O)CC[C@@]45C[C@@]35CC[C@]12C`: the level, % of control at 0.32 µM with Human gammaherpesvirus 4 [1] turned out to be 0%. Moreover, the Activity in assay [2] is reported as 1.5; with Raji it was 70%. Further, the level, % of control at 0.0032 µM with Human gammaherpesvirus 4 [3] turned out to be 72.6%. Further, the level, % of control at 0.00032 µM in the assay on Human gammaherpesvirus 4 [4] came to 95.6%. Moreover, the level, % of control at 0.032 µM with Human gammaherpesvirus 4 [5] came to 31.5%. Also, the midpoint of inhibition in the assay on Human gammaherpesvirus 4 [6], the IC50, lay at 9.9 nM.
Regarding `C=C(C)[C@@H](C)CC[C@@H](C)[C@H]1CC[C@@]2(C)[C@@H]3CC[C@H]4C(C)(C)[C@@H](O)CC[C@@]45C[C@@]35CC[C@]12C` [CYCLOLAUDENOL (24S)], in the assay with Human gammaherpesvirus 4 [1], the level, % of control at 0.32 µM came to 0%. In addition, the Activity in assay [2] was 1.8; in the assay with Raji, 70%. The level, % of control at 0.0032 µM in the assay on Human gammaherpesvirus 4 [3] was determined as 70%. In addition, the level, % of control at 0.00032 µM with Human gammaherpesvirus 4 [4] worked out at 93.6%. Moreover, the level, % of control at 0.032 µM in the assay with Human gammaherpesvirus 4 [5] is 30.6%. Further, the IC50 with Human gammaherpesvirus 4 [6] came to 8.9 nM.
On to `CC(C)C(=O)CC[C@@H](C)[C@H]1CC[C@@]2(C)[C@@H]3CC[C@H]4C(C)(C)C(=O)CC[C@@]45C[C@@]35CC[C@]12C`, for which the level, % of control at 0.32 µM in the assay on Human gammaherpesvirus 4 [1] came out at 0%. Moreover, the Activity amounted to 1.9 in assay [2] and 70% in the assay with Raji. The level, % of control at 0.0032 µM in the assay on Human gammaherpesvirus 4 [3] was determined as 72.1%. Moreover, the level, % of control at 0.00032 µM in the assay on Human gammaherpesvirus 4 [4] was 96.3%. Also, the level, % of control at 0.032 µM with Human gammaherpesvirus 4 [5] is 24%. The compound further had an IC50 in the assay on Human gammaherpesvirus 4 [6] of 9 nM.
For the compound `CC(C)=C(C)CC[C@@H](C)[C@H]1CC[C@@]2(C)[C@@H]3CC[C@H]4C(C)(C)[C@@H](O)CC[C@@]45C[C@@]35CC[C@]12C` [CYCLOBRANOL], the level, % of control at 0.32 µM in the assay with Human gammaherpesvirus 4 [1] worked out at 0%. For the same compound, the Activity in assay [2] was determined as 1.9; in the assay on Raji it was 70%. Further, in the assay on Human gammaherpesvirus 4 [3], the level, % of control at 0.0032 µM was 71.3%. Besides, in the assay on Human gammaherpesvirus 4 [4], the level, % of control at 0.00032 µM is 94.5%. In addition, the level, % of control at 0.032 µM in the assay with Human gammaherpesvirus 4 [5] stood at 30.5%. For the same compound, 9.4 nM corresponded to half-maximal inhibition with Human gammaherpesvirus 4 [6] (IC50).
Turning to `CC1=C(/C=C/C(C)=C/C=C/C(C)=C/C=C/C=C(C)/C=C/C=C(C)/C=C/C2=C(C)CCCC2(C)C)C(C)(C)CCC1` [BETA CAROTENE], in the assay on Human gammaherpesvirus 4 [1], the level, % of control at 0.32 µM came out at 8.6%. The level, % of control at 0.0032 µM in the assay with Human gammaherpesvirus 4 [3] is 82.1%. In the assay with Human gammaherpesvirus 4 [4], the level, % of control at 0.00032 µM came to 100%. Besides, in the assay with Raji, the Activity stood at 70%. The level, % of control at 0.032 µM in the assay with Human gammaherpesvirus 4 [5] came out at 34.2%. For the same compound, the IC50 in the assay on Human gammaherpesvirus 4 [6] was found to be 12.7 nM.
With `CC1(C)N([O])C(c2ccc(C(=O)O)cc2)=[N+]([O-])C1(C)C`, the Activity in assay [2] came out at 8.
Still for that read-out and setting: the figure for `CC1(C)[C@@H](O[C@H]2O[C@H](C(=O)O)[C@@H](O)[C@H](O)[C@H]2O[C@@H]2O[C@H](C(=O)O)[C@@H](O)[C@H](O)[C@H]2O)CC[C@]2(C)[C@H]3C(=O)C=C4[C@@H]5C[C@@](C)(C(=O)O)CC[C@]5(C)CC[C@@]4(C)[C@]3(C)CC[C@@H]12` [GLYCYRRHIZIN] is 2.2.
Take `CC1=C(/C=C/C(C)=C/C=C/C(C)=C/C(=O)O)C(C)(C)CCC1` [TRETINOIN]: the level, % of control at 0.32 µM in the assay on Human gammaherpesvirus 4 [1] is 21.6%. For the same compound, the level, % of control at 0.0032 µM in the assay on Human gammaherpesvirus 4 [3] was determined as 76.3%. Moreover, the level, % of control at 0.00032 µM with Human gammaherpesvirus 4 [4] is 100%. The compound further returned an Activity with Raji of 60%. Also, the level, % of control at 0.032 µM in the assay on Human gammaherpesvirus 4 [5] was determined as 49.3%. Also, the IC50 in the assay with Human gammaherpesvirus 4 [6] turned out to be 15.4 nM.

These data come from ChEMBL document CHEMBL1143693, “Cancer chemopreventive effects of cycloartane-type and related triterpenoids in in vitro and in vivo models” (J Nat Prod, 2007).
